Results taken from the Kinase Knowledgebase extract (Sharma et al. 2016).
pIC50: −log10 of the molar value.

Biological target: PIK3CA (human) (UniProt P42336)
Test: Assessment of PIK3CA Kinase Activity

PIK3CA (human), sequence (P42336 whole entry, looked up): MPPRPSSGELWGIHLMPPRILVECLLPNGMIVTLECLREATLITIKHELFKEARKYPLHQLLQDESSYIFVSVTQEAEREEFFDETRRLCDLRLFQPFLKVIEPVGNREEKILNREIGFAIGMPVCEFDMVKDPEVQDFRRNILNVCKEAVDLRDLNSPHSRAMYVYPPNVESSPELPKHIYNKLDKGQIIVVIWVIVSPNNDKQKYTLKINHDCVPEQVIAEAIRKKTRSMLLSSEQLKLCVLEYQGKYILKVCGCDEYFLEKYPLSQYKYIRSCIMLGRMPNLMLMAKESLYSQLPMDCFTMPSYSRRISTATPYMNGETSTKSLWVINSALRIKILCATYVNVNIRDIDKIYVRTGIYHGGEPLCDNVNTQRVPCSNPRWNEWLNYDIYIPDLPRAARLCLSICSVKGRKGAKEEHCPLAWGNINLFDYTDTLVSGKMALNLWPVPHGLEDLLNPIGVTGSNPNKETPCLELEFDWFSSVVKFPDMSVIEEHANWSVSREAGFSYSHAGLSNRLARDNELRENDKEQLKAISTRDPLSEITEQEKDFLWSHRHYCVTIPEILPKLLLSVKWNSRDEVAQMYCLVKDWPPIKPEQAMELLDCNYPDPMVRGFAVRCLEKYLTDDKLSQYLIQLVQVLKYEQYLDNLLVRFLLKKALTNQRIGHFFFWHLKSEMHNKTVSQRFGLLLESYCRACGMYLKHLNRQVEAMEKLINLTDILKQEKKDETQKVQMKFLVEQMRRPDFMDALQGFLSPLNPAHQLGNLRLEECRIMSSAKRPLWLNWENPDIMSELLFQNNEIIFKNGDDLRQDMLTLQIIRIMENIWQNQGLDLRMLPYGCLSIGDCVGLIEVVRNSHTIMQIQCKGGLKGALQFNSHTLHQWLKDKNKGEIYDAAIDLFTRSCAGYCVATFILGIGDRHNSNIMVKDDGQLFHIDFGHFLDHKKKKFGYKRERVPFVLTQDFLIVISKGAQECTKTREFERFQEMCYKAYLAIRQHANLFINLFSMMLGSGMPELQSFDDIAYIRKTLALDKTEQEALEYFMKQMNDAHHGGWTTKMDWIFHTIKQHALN

SMILES	pIC50
CC(C)(Nc1ncc(C(=O)NO)cn1)c1cc2nc(-c3cccc4[nH]ncc34)nc(N3CCOCC3)c2s1	6.00 to 7.00
CN(Cc1cc2nc(-c3cnc(N)nc3)nc(N3CCOCC3)c2s1)c1ncc(C(=O)NO)cn1	> 7.00
CN(Cc1cc2nc(-c3ccc(C(N)=O)cc3)nc(N3CCOCC3)c2s1)c1ncc(C(=O)NO)cn1	6.00 to 7.00
O=C(NO)c1cc2nc(-c3cccc4[nH]ncc34)nc(N3CCOCC3)c2s1	> 7.00
CN(C)c1ncc(-c2nc(N3CCOCC3)c3sc(CN(C)c4ncc(C(=O)NO)cn4)cc3n2)cn1	> 7.00
CN(Cc1cc2nc(-c3ccc4[nH]cnc4c3)nc(N3CCOCC3)c2s1)c1ncc(C(=O)NO)cn1	> 7.00
CC1COCC(C)N1c1nc(-c2cccc3[nH]ncc23)nc2cc(CN(C)c3ncc(C(=O)NO)cn3)sc12 (stereo not given)	6.00 to 7.00
Cc1ncc(-c2nc(N3CCOCC3)c3sc(CN(C)c4ncc(C(=O)NO)cn4)cc3n2)cn1	> 7.00
O=C(CCCNCc1cc2nc(-c3cccc4[nH]ncc34)nc(N3CCOCC3)c2s1)NO	6.00 to 7.00
CN(Cc1cc2nc(-c3ccc(C(F)(F)F)cc3)nc(N3CCOCC3)c2s1)c1ncc(C(=O)NO)cn1	6.00 to 7.00
O=C(NO)c1cnc(N(CCCO)Cc2cc3nc(-c4cccc5[nH]ncc45)nc(N4CCOCC4)c3s2)nc1	> 7.00
CN(Cc1cc2nc(-c3ccc(N)nc3)nc(N3CCOCC3)c2s1)c1ncc(C(=O)NO)cn1	> 7.00
O=C(CCCCCCN1CCN(Cc2cc3nc(-c4cccc5[nH]ncc45)nc(N4CCOCC4)c3s2)CC1)NO	6.00 to 7.00
NC(=O)CN(Cc1cc2nc(-c3cccc4[nH]ncc34)nc(N3CCOCC3)c2s1)c1ncc(C(=O)NO)cn1	> 7.00
COCCN(CCOC)c1nc(-c2cccc3[nH]ncc23)nc2cc(CN(C)c3ncc(C(=O)NO)cn3)sc12	6.00 to 7.00
O=C(NO)c1ccc(NCc2cc3nc(-c4cccc5[nH]ncc45)nc(N4CCOCC4)c3s2)nc1	> 7.00
CN(C)CCN(Cc1cc2nc(-c3cccc4[nH]ncc34)nc(N3CCOCC3)c2s1)c1ncc(C(=O)NO)cn1	> 7.00
O=C(CCCCNc1cc2nc(-c3cccc4[nH]ncc34)nc(N3CCOCC3)c2s1)NO	6.00 to 7.00
CN(Cc1cc2nc(-c3cccc4[nH]ncc34)nc(NCCO)c2s1)c1ncc(C(=O)NO)cn1	6.00 to 7.00
NCCN(Cc1cc2nc(-c3cccc4[nH]ncc34)nc(N3CCOCC3)c2s1)c1ncc(C(=O)NO)cn1	> 7.00
O=C(C=Cc1ccc(CNCc2cc3nc(-c4cccc5[nH]ncc45)nc(N4CCOCC4)c3s2)cc1)NO	6.00 to 7.00
COC(=O)CN(Cc1cc2nc(-c3cccc4[nH]ncc34)nc(N3CCOCC3)c2s1)c1ncc(C(=O)NO)cn1	> 7.00

SMILES	pIC50
Nc1ccc(-c2nc(N3CCOCC3)c3sc(CNCc4ccc(/C=C/C(=O)NO)cc4)cc3n2)cc1	6.00 to 7.00
CNc1ncc(-c2nc(N3CCOCC3)c3sc(CN(C)c4ncc(C(=O)NO)cn4)cc3n2)cn1	> 7.00
O=C(NO)c1cnc(N2CCN(S(=O)(=O)c3cc4nc(-c5cccc6[nH]ncc56)nc(N5CCOCC5)c4s3)CC2)nc1	> 7.00
CN(CCCCC(=O)NO)Cc1cc2nc(-c3cccc4[nH]ncc34)nc(N3CCOCC3)c2s1	6.00 to 7.00
CC(=O)Nc1ccc(-c2nc(N3CCOCC3)c3sc(CN(C)c4ncc(C(=O)NO)cn4)cc3n2)cc1	> 7.00
O=C(CCCCCN1CCN(Cc2cc3nc(-c4cccc5[nH]ncc45)nc(N4CCOCC4)c3s2)CC1)NO	> 7.00
CC(C)CN(Cc1cc2nc(-c3cccc4[nH]ncc34)nc(N3CCOCC3)c2s1)c1ncc(C(=O)NO)cn1	6.00 to 7.00
CN(Cc1cc2nc(-c3cccc4[nH]ccc34)nc(N3CCOCC3)c2s1)c1ncc(C(=O)NO)cn1	6.00 to 7.00
CC(=O)NCCN(Cc1cc2nc(-c3cccc4[nH]ncc34)nc(N3CCOCC3)c2s1)c1ncc(C(=O)NO)cn1	> 7.00
CCN(Cc1cc2nc(-c3cccc4[nH]ncc34)nc(N3CCOCC3)c2s1)c1ncc(C(=O)NO)cn1	> 7.00
CN(Cc1cc2nc(-c3cnc(CN)nc3)nc(N3CCOCC3)c2s1)c1ncc(C(=O)NO)cn1	> 7.00
COc1ccccc1Nc1nc(-c2cccc3[nH]ncc23)nc2cc(CN(C)c3ncc(C(=O)NO)cn3)sc12	6.00 to 7.00
CN(Cc1cc2nc(-c3ccc(CO)cc3)nc(N3CCOCC3)c2s1)c1ncc(C(=O)NO)cn1	6.00 to 7.00
CN(Cc1cc2nc(-c3cccc4[nH]ncc34)nc(N3CCOCC3)c2s1)c1ncc(C=CC(=O)NO)cn1	> 7.00
O=C(CCCCCNc1cc2nc(-c3cccc4[nH]ncc34)nc(N3CCOCC3)c2s1)NO	6.00 to 7.00
CN(Cc1cc2cc(-c3cccc4[nH]ncc34)nc(N3CCOCC3)c2s1)c1ncc(C(=O)NO)cn1	6.00 to 7.00
CN(Cc1cc2nc(-c3ccc(CN)cc3)nc(N3CCOCC3)c2s1)c1ncc(C(=O)NO)cn1	6.00 to 7.00
CN(Cc1cc2nc(-c3cc(F)cc4[nH]ncc34)nc(N3CCOCC3)c2s1)c1ncc(C(=O)NO)cn1	> 7.00
CC(c1cc2nc(-c3cccc4[nH]ncc34)nc(N3CCOCC3)c2s1)N(C)c1ncc(C(=O)NO)cn1 (stereo not given)	> 7.00
CCCN(Cc1cc2nc(-c3cccc4[nH]ncc34)nc(N3CCOCC3)c2s1)c1ncc(C(=O)NO)cn1	> 7.00
CN(CCCCCC(=O)NO)Cc1cc2nc(-c3cccc4[nH]ncc34)nc(N3CCOCC3)c2s1	6.00 to 7.00
CN(Cc1cc2nc(-c3cccc4[nH]ncc34)nc(N3CCOCC3)c2s1)c1ccc(C(=O)NO)cc1	> 7.00

SMILES	pIC50
Nc1ccc(-c2nc(N3CCOCC3)c3sc(CN4CCN(c5ncc(C(=O)NO)cn5)CC4)cc3n2)cc1	6.00 to 7.00
Cc1c(CN(C)c2ncc(C(=O)NO)cn2)sc2c(N3CCOCC3)nc(-c3cccc4[nH]ncc34)nc12	6.00 to 7.00
CN(Cc1cc2nc(-c3cccnc3)nc(N3CCOCC3)c2s1)c1ncc(C(=O)NO)cn1	> 7.00
O=C(NO)c1cnc(N2CCC(CNc3cc4nc(-c5cccc6[nH]ncc56)nc(N5CCOCC5)c4s3)CC2)nc1	> 7.00
CN(Cc1cc2nc(-c3ccc(N)cc3)nc(N3CCOCC3)c2s1)c1ncc(C(=O)NO)cn1	> 7.00
CC(C)(C)CN(Cc1cc2nc(-c3cccc4[nH]ncc34)nc(N3CCOCC3)c2s1)c1ncc(C(=O)NO)cn1	6.00 to 7.00
CS(=O)(=O)N1CCN(Cc2cc3nc(-c4cccc5nn(CCCCC(=O)NO)cc45)nc(N4CCOCC4)c3s2)CC1	6.00 to 7.00
CN(Cc1cc2nc(-c3ccccc3CO)nc(N3CCOCC3)c2s1)c1ncc(C(=O)NO)cn1	6.00 to 7.00
COCCN(Cc1cc2nc(-c3cccc4[nH]ncc34)nc(N3CCOCC3)c2s1)c1ncc(C(=O)NO)cn1	> 7.00
Cc1nc(N)ncc1-c1nc(N2CCOCC2)c2sc(CN(C)c3ncc(C(=O)NO)cn3)cc2n1	> 7.00
CN(Cc1cc2nc(-c3cccc(C(N)=O)c3)nc(N3CCOCC3)c2s1)c1ncc(C(=O)NO)cn1	6.00 to 7.00
CCCCN(Cc1cc2nc(-c3cccc4[nH]ncc34)nc(N3CCOCC3)c2s1)c1ncc(C(=O)NO)cn1	6.00 to 7.00
CC(=O)Nc1ccc(-c2nc(N3CCOCC3)c3sc(CN(C)c4ncc(C(=O)NO)cn4)cc3n2)cn1	> 7.00
CN(Cc1cc2nc(-c3cccc(CO)c3)nc(N3CCOCC3)c2s1)c1ncc(C(=O)NO)cn1	> 7.00
CC1CN(c2nc(-c3cccc4[nH]ncc34)nc3cc(CN(C)c4ncc(C(=O)NO)cn4)sc23)CC(C)O1 (stereo not given)	6.00 to 7.00
CN(Cc1cc2nc(-c3cncnc3)nc(N3CCOCC3)c2s1)c1ncc(C(=O)NO)cn1	> 7.00
O=C(CCCCCCNCc1cc2nc(-c3cccc4[nH]ncc34)nc(N3CCOCC3)c2s1)NO	> 7.00
Cn1cc(CNc2cc3nc(-c4cccc5[nH]ncc45)nc(N4CCOCC4)c3s2)c2cc(C(=O)NO)ccc21	> 7.00
CN(Cc1cc2nc(-c3ccc(O)cc3)nc(N3CCOCC3)c2s1)c1ncc(C(=O)NO)cn1	6.00 to 7.00
CN(CC1CCN(c2ncc(C(=O)NO)cn2)CC1)c1cc2nc(-c3cccc4[nH]ncc34)nc(N3CCOCC3)c2s1	> 7.00
CN(Cc1cc2nc(-c3cccc(O)c3)nc(N3CCOCC3)c2s1)c1ncc(C(=O)NO)cn1	> 7.00
CN(Cc1cc2nc(-c3ccc(N)cc3)nc(N3CCOCC3)c2s1)c1ccc(C(=O)NO)cc1	6.00 to 7.00

SMILES	pIC50
O=C(C=Cc1ccc(S(=O)(=O)Nc2cc3nc(-c4cccc5[nH]ncc45)nc(N4CCOCC4)c3s2)cc1)NO	> 7.00
CN(Cc1cc2nc(-c3cccc4[nH]ncc34)nc(N3CCOCC3)c2s1)CC1CCN(c2ncc(C(=O)NO)cn2)CC1	> 7.00
CN(CCCCCCC(=O)NO)Cc1cc2nc(-c3cccc4[nH]ncc34)nc(N3CCOCC3)c2s1	> 7.00
CN(CCCC(=O)NO)Cc1cc2nc(-c3cccc4[nH]ncc34)nc(N3CCOCC3)c2s1	6.00 to 7.00
O=C(/C=C/c1ccc(NCc2cc3nc(-c4cccc5[nH]ncc45)nc(N4CCOCC4)c3s2)cc1)NO	> 7.00
CN(Cc1cc2nc(-c3cnc(C(N)=O)nc3)nc(N3CCOCC3)c2s1)c1ncc(C(=O)NO)cn1	> 7.00
O=C(O)CN(Cc1cc2nc(-c3cccc4[nH]ncc34)nc(N3CCOCC3)c2s1)c1ncc(C(=O)NO)cn1	> 7.00
CCN(Cc1cc2nc(-c3ccc(N)cc3)nc(N3CCOCC3)c2s1)c1ncc(C(=O)NO)cn1	6.00 to 7.00
CN(Cc1cc2nc(-c3cc[nH]c3)nc(N3CCOCC3)c2s1)c1ncc(C(=O)NO)cn1	> 7.00
O=C(NO)c1ccc(NCc2cc3nc(-c4cccc5[nH]ncc45)nc(N4CCOCC4)c3s2)cc1	6.00 to 7.00
Cc1nc2ccc(-c3nc(N4CCOCC4)c4sc(CN(C)c5ncc(C(=O)NO)cn5)cc4n3)cc2[nH]1	> 7.00
O=C(NO)c1ccc(CNCc2cc3nc(-c4cccc5[nH]ncc45)nc(N4CCOCC4)c3s2)cc1	6.00 to 7.00
CN(Cc1cc2nc(-c3cccc(N)c3)nc(N3CCOCC3)c2s1)c1ncc(C(=O)NO)cn1	6.00 to 7.00
CN(Cc1cc2nc(-c3cccc4[nH]ncc34)nc(N3CCOCC3)c2s1)c1ccc(/C=C/C(=O)NO)cc1	> 7.00
CN(C)c1ccc(-c2nc(N3CCOCC3)c3sc(CN(C)c4ncc(C(=O)NO)cn4)cc3n2)cn1	6.00 to 7.00
O=C(NO)c1cnc(N2CCC(CNCc3cc4nc(-c5cccc6[nH]ncc56)nc(N5CCOCC5)c4s3)CC2)nc1	6.00 to 7.00
O=C(C=Cc1cc2nc(-c3cccc4[nH]ncc34)nc(N3CCOCC3)c2s1)NO	6.00 to 7.00
O=C(NO)c1cnc(NCc2cc3cc(-c4cccc5[nH]ncc45)nc(N4CCOCC4)c3s2)nc1	6.00 to 7.00
CN(Cc1cc2nc(-c3ccc(N)c(N)c3)nc(N3CCOCC3)c2s1)c1ncc(C(=O)NO)cn1	6.00 to 7.00
